Measured values published in the supplement of paper PMC10331698.
± gives the standard deviation of the averaged measurements.

What was measured:
Assay in all cases: level (log10 ratio to DMSO vehicle control); higher = higher biomarker level / cell amount than vehicle control
Details in all cases: in DMSO
[1] = compound: C=C(C)C(=O)OCCC(F)(F)C(F)(F)C(F)(F)C(F)(F)C(F)(C(F)(F)F)C(F)(F)F [(Perfluoro-5-methylhexyl)ethyl 2-methylprop-2-enoate]
Method: (§1)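 BioMAP Diversity Plus panel of 12 human primary cell co-culture systems (3C, 4H, LPS, SAg, BT, BF4T, BE3C, CASM3C, HDF3CGF, KF3CT, MyoF, Mphg). Compounds were added 1 h before stimulation and left for 24 h (MyoF 48 h; BT 72 h for soluble read-outs or 6 d for IgG). Biomarkers were read by ELISA, cytotoxicity by SRB, PBMC viability and proliferation by Alamar Blue. Each well value was divided by the mean of 8 DMSO control wells on the same plate and log10 transformed; duplicate blinded samples were tested at 4 concentrations.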

[2] = compound: C=CC(F)(F)C(F)(F)C(F)(F)C(F)(F)C(F)(F)C(F)(F)C(F)(F)C(F)(F)C=C [1,8-Divinylperfluorooctane]
Method: as §1

[3] = compound: FC(F)C(F)(F)COCC1CO1 [((2,2,3,3-Tetrafluoropropoxy)methyl)oxirane]
Method: as §1

Heptafluorobutyramide = compound: NC(=O)C(F)(F)C(F)(F)C(F)(F)F [Heptafluorobutyramide]
Method: as §1

Pentafluoropropionamide = compound: NC(=O)C(F)(F)C(F)(F)F [Pentafluoropropionamide]
Method: as §1

[4] = compound: NCC(F)(F)C(F)(F)C(F)(F)C(F)(F)C(F)(F)C(F)(F)C(F)(F)F [1H,1H-Perfluorooctylamine]
Method: as §1

[5] = compound: O=C(O)C(F)(F)OC(F)(F)C(F)(F)OC(F)(F)F [Perfluoro-3,6-dioxaheptanoic acid]
Method: as §1

Test System | level (log10) ([1]; 6700 nM) | level (log10) ([1]; 20000 nM) | level (log10) ([2]; 6700 nM) | level (log10) ([2]; 20000 nM) | level (log10) ([3]; 6700 nM) | level (log10) ([3]; 20000 nM) | level (log10) ([3]; 60000 nM) | level (log10) (Heptafluorobutyramide; 6700 nM) | level (log10) (Heptafluorobutyramide; 20000 nM) | level (log10) (Heptafluorobutyramide; 60000 nM) | level (log10) (Pentafluoropropionamide; 6700 nM) | level (log10) (Pentafluoropropionamide; 20000 nM) | level (log10) (Pentafluoropropionamide; 60000 nM) | level (log10) ([4]; 6700 nM) | level (log10) ([4]; 20000 nM) | level (log10) ([4]; 60000 nM) | level (log10) ([5]; 6700 nM) | level (log10) ([5]; 20000 nM) | level (log10) ([5]; 60000 nM)
3C:CD106/VCAM-1 | -0.032 ± 0.0099 | -0.012 ± 0.0085 | -0.018 ± 0.017 | -0.003 ± 0.011 | -0.0005 ± 0.0092 | -0.0225 ± 0.023 | -0.0125 ± 0.011 | -0.0085 ± 0.0021 | -0.01 ± 0.014 | -0.025 | -0.0215 ± 0.013 | -0.009 ± 0.027 | -0.0105 ± 0.005 | -0.0035 ± 0.00071 | -0.016 ± 0.0057 | -0.005 ± 0.0099 | -0.0185 ± 0.019 | -0.008 ± 0.0071 | -0.001 ± 0.018
CASM3C:LDLR | -0.032 ± 0.03 | 0.018 ± 0.025 | 0.008 | 0.0495 ± 0.019 | -0.0165 ± 0.021 | -0.02 ± 0.0042 | 0.007 ± 0.024 | -0.017 ± 0.0014 | -0.0145 ± 0.0064 | 0.024 ± 0.047 | 0.003 ± 0.042 | 0.0045 ± 0.011 | 0.0295 ± 0.015 | -0.0295 ± 0.005 | -0.018 ± 0.023 | 0.007 ± 0.0042 | -0.0145 ± 0.033 | -0.013 ± 0.037 | -0.0015 ± 0.005
HDF3CGF:CXCL11/I-TAC | -0.013 ± 0.0014 | -0.0155 ± 0.013 | 0.0135 ± 0.013 | 0.016 ± 0.037 | 0.027 ± 0.013 | -0.0005 ± 0.0035 | 0.003 ± 0.0057 | 0.0015 ± 0.00071 | -0.0015 ± 0.0092 | -0.0305 ± 0.015 | 0.0135 ± 0.0035 | 0.0195 ± 0.018 | 0.022 ± 0.024 | -0.0135 ± 0.035 | -0.021 ± 0.033 | -0.046 ± 0.078 | -0.017 ± 0.0057 | -0.0035 ± 0.022 | -0.0035 ± 0.012
